Patent US20180279615A1 (priority 2015, published 2018)

System: Botrytis cinerea
Assay: Activity against the grey mold Botrytis cinerea in the microtiterplate test
Format: cell-based
Conditions: comparative examples, measured at 405 nm 7 days after inoculation

| Structure (SMILES) | Growth (%) at 32 ppm [%] |
| --- | --- |
| Cc1cc(C2=NC(C)(C)Cc3ccccc32)cnc1C | 51 |
| Cc1cc(C2=NC(C)(C)C(C)c3ccccc32)cnc1C (centres unmarked) [I-1, 1-(5,6-dimethyl-3-pyridyl)-3,3,4-trimethyl-4H-isoquinoline] | 0 |
